Assay results: US8349828B2, “Azatricyclic antibiotic compounds” (Actelion Pharmaceuticals Ltd., priority 2008, dated 2013)
In brackets after ≈: the same amount, converted by molar mass.

system: M. catarrhalis A894; assay: MIC determination by microdilution in cation-adjusted Mueller-Hinton Broth (CLSI M7-A7); type: cell-based; details: Moraxella catarrhalis, A894, microdilution method
Description: Minimal inhibitory concentrations (MICs, in mg/l) were determined in cation-adjusted Mueller-Hinton Broth by a microdilution method following the description given in “Methods for Dilution Antimicrobial Susceptibility Tests for Bacteria that Grow Aerobically”, Approved standard, 7th ed., Clinical and Laboratory Standards Institute (CLSI) Document M7-A7, Wayne, Pa., USA, 2006. All Example compounds were tested against several Gram-positive and Gram-negative bacteria.

SMILES | MIC [µg/mL]
O=C1COc2ccc(N3C[C@@H](CNC[C@@H]4Cc5c(F)ccc6ccc(=O)n4c56)OC3=O)cc2N1 [Example 16, (S)-9-fluoro-2-({[(R)-2-oxo-3-(3-oxo-3,4-dihydro-2H-benzo[1,4]oxazin-6-yl)-oxazolidin-5-ylmethyl]-amino}-methyl)-1,2-dihydro-pyrrolo[3,2,1-ij]quinolin-4-one] | 0.125 (≈ 0.269 µM)
O=C1CSc2ccc(N3C[C@@H](CCNC[C@H]4Cc5c(F)ccc6ccc(=O)n4c56)OC3=O)cc2N1 [Example 18, (R)-9-fluoro-2-({2-[(R)-2-oxo-3-(3-oxo-3,4-dihydro-2H-benzo[1,4]thiazin-6-yl)-oxazolidin-5-yl]-ethylamino}-methyl)-1,2-dihydropyrrolo[3,2,1-ij]quinolin-4-one] | ≤ 0.063
O=C1CSc2ccc(N3C[C@H](CCNC[C@@H]4Cc5c(F)ccc6ccc(=O)n4c56)OC3=O)cc2N1 [Example 19, (S)-9-fluoro-2-({2-[(S)-2-oxo-3-(3-oxo-3,4-dihydro-2H-benzo[1,4]thiazin-6-yl)-oxazolidin-5-yl]-ethylamino}-methyl)-1,2-dihydropyrrolo[3,2,1-ij]quinolin-4-one] | ≤ 0.063
O=C1CSc2ccc(N3C[C@H](CCNC[C@H]4Cc5c(F)ccc6ccc(=O)n4c56)OC3=O)cc2N1 [Example 20, (R)-9-fluoro-2-({2-[(S)-2-oxo-3-(3-oxo-3,4-dihydro-2H-benzo[1,4]thiazin-6-yl)-oxazolidin-5-yl]-ethylamino}-methyl)-1,2-dihydropyrrolo[3,2,1-ij]quinolin-4-one] | ≤ 0.063
O=C1CSc2ccc(N3C[C@H](CCNC[C@@H]4Cc5cccc6ncc(=O)n4c56)OC3=O)cc2N1 [Example 29, (S)-5-({2-[(S)-2-oxo-3-(3-oxo-3,4-dihydro-2H-benzo[1,4]thiazin-6-yl)-oxazolidin-5-yl]-ethylamino}-methyl)-5,6-dihydro-pyrrolo[1,2,3-de]quinoxalin-3-one] | ≤ 0.063
O=C1CSc2ccc(N3C[C@@H](CNC[C@@H]4Cc5cccc6ncc(=O)n4c56)OC3=O)cc2N1 [Example 30, (S)-5-({[(R)-2-oxo-3-(3-oxo-3,4-dihydro-2H-benzo[1,4]thiazin-6-yl)oxazolidin-5-ylmethyl]-amino}-methyl)-5,6-dihydro-pyrrolo[1,2,3-de]quinoxalin-3-one] | 0.125 (≈ 0.27 µM)

same assay, conditions: microdilution method

SMILES | MIC M. catarrhalis A894
O=C1CSc2ccc(N3C[C@@H](CCNC[C@@H]4Cc5c(F)ccc6ccc(=O)n4c56)OC3=O)cc2N1 [Example 17, (S)-9-fluoro-2-({2-[(R)-2-oxo-3-(3-oxo-3,4-dihydro-2H-benzo[1,4]thiazin-6-yl)-oxazolidin-5-yl]-ethylamino}-methyl)-1,2-dihydro-1.5 pyrrolo[3,2,1-ij]quinolin-4-one] | ≦0.063 mg/l
